According to PubChem BioAssay (NCI):
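Each compound was tested at five concentrations against cells in 96-well plates for 48 hours. TGI is the concentration that stops growth completely.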 Where a SMILES comes first, the peptide text is derived from it. [ ]: non-standard residue; d: D form. The star is where a group is joined. Bn2Val = CC(C)[C@@H](C(=O)*)N(Cc1ccccc1)Cc1ccccc1; NHPiperonyl = c1cc2c(cc1CN*)OCO2; NMeV = CN[C@H](C(=O)O)C(C)C; dNMeA = CN[C@H](C)C(=O)O

Assays:
Experiment in all cases: NCI-60 cell line screen, 48 h
[1] = test system: M14 melanoma
[2] = test system: HOP-92 NSCLC
[3] = test system: PC-3 prostate
[4] = test system: EKVX NSCLC
[5] = test system: MCF7 breast
[6] = test system: OVCAR-5 ovarian
[7] = test system: NCI-H23 lung
[8] = test system: HCT-116 colon
[9] = test system: SK-MEL-2 melanoma
[10] = test system: CAKI-1 renal
[11] = test system: T-47D breast
[12] = test system: SF-295 CNS
[13] = test system: SK-MEL-5 melanoma
[14] = test system: SK-OV-3 ovarian
[15] = test system: A549 NSCLC
[16] = test system: KM12 colon
[17] = test system: UO-31 renal
[18] = test system: DU-145 prostate
[19] = test system: BT-549 breast

Compound	TGI [1]	TGI [2]	TGI [3]	TGI [4]	TGI [5]	TGI [6]	TGI [7]	TGI [8]	TGI [9]	TGI [10]	TGI [11]	TGI [12]	TGI [13]	TGI [14]	TGI [15]	TGI [16]	TGI [17]	TGI [18]	TGI [19]
O=C1CCN=C(NC(=O)C(F)(F)F)N1CCc1c[nH]c2ccccc12	> 100 µM	> 100 µM	> 100 µM	> 100 µM	> 100 µM	> 100 µM	> 100 µM	> 100 µM	> 100 µM	> 100 µM	> 100 µM	> 100 µM	> 100 µM	> 100 µM	> 100 µM	> 100 µM	> 100 µM	> 100 µM	–
CCOc1cc(/C=N\O)cc(/C=N/O)c1O	> 100 µM	60.4 µM	> 100 µM	> 100 µM	25 µM	> 100 µM	> 100 µM	> 100 µM	41 µM	61.1 µM	93.8 µM	> 100 µM	39.5 µM	> 100 µM	> 100 µM	> 100 µM	–	> 100 µM	–
NC(CCCNc1ccc(O)cc1)C(=O)O (stereo not drawn)	> 66.9 µM	63.3 µM	–	> 88.8 µM	–	> 100 µM	> 100 µM	32.1 µM	> 66.8 µM	> 100 µM	–	> 100 µM	63.8 µM	> 100 µM	> 100 µM	> 100 µM	> 100 µM	–	–
COc1c(C(=O)/C(=N/Nc2cccc(Cl)c2)C(C)=O)c(O)c(OC)c2occc12	> 100 µM	> 100 µM	> 100 µM	> 100 µM	> 100 µM	> 100 µM	> 100 µM	> 100 µM	> 100 µM	> 100 µM	88.9 µM	> 100 µM	> 100 µM	> 100 µM	> 100 µM	> 100 µM	> 100 µM	> 100 µM	–
O=C1c2ccccc2-c2nc(-c3cccs3)cc3c2c1nc1ccccc13	18.3 µM	> 100 µM	> 100 µM	> 100 µM	29.2 µM	> 100 µM	38.8 µM	42.2 µM	32 µM	> 100 µM	–	> 100 µM	–	> 100 µM	63.5 µM	> 100 µM	> 100 µM	31 µM	> 100 µM
S=C(Nc1ccc(Cl)cc1)c1ccc(CN2CCCCC2)s1	26.7 µM	–	73.4 µM	35.1 µM	61.9 µM	32.1 µM	8.63 µM	25.5 µM	> 100 µM	52.1 µM	–	–	15.1 µM	–	> 100 µM	56.8 µM	31.9 µM	> 100 µM	79.3 µM
CCOP(=O)(OCC)c1cc2cc(O)ccc2oc1=O	> 100 µM	> 100 µM	> 100 µM	> 100 µM	> 100 µM	> 100 µM	> 100 µM	> 100 µM	–	> 100 µM	> 100 µM	> 100 µM	> 100 µM	> 100 µM	> 100 µM	> 100 µM	0.151 µM	> 100 µM	–
CC(=O)N(CN1C(=O)CCC1C(=O)O)c1ccc(C)cc1 (stereo not drawn)	> 100 µM	> 100 µM	> 100 µM	> 100 µM	> 100 µM	> 100 µM	> 100 µM	> 100 µM	> 100 µM	> 100 µM	> 100 µM	> 100 µM	> 100 µM	> 100 µM	> 100 µM	> 100 µM	> 100 µM	> 100 µM	–
O=S(Nc1ccccc1)c1ccccc1Oc1ccccc1 (stereo not drawn)	> 100 µM	–	> 100 µM	79.1 µM	> 100 µM	> 100 µM	> 100 µM	> 100 µM	–	> 100 µM	–	> 100 µM	> 100 µM	–	> 100 µM	> 100 µM	> 100 µM	> 100 µM	–
CC(=O)Oc1c(C)cc2c(c1C)C(C)(C)CN2C(=O)C(C)(C)C	> 100 µM	74.4 µM	> 100 µM	> 100 µM	> 100 µM	> 100 µM	> 100 µM	> 100 µM	> 100 µM	–	96.2 µM	> 100 µM	> 100 µM	> 100 µM	> 100 µM	> 100 µM	> 100 µM	> 100 µM	–
CC(C)[C@H](NC(=O)[C@H](C(C)C)N(Cc1ccccc1)Cc1ccccc1)C(=O)N(C)[C@H](C(=O)N1CCC[C@H]1C(=O)N(C)[C@H](C)C(=O)NCc1ccc2c(c1)OCO2)C(C)C (Bn2Val-V[NMeV]P[dNMeA]-NHPiperonyl)	> 100 µM	–	89.9 µM	> 100 µM	7.55 µM	23.9 µM	> 100 µM	23.2 µM	25.5 µM	> 100 µM	–	> 100 µM	–	> 100 µM	> 100 µM	> 100 µM	> 100 µM	> 33.2 µM	57.5 µM
CC(/C=C/c1ccccc1)=N\N=C(C)\C=C\c1ccccc1	> 100 µM	–	–	> 100 µM	–	> 100 µM	> 100 µM	> 100 µM	> 100 µM	–	–	> 100 µM	> 100 µM	> 100 µM	> 100 µM	> 100 µM	–	–	–
COc1cccc([C@@H]2C/C(=N\NC(=O)C(=O)N[C@@H](C)c3ccccc3)c3cc4c(cc3N2)OCO4)c1	> 100 µM	> 100 µM	> 100 µM	> 100 µM	> 100 µM	> 100 µM	–	> 100 µM	> 100 µM	> 100 µM	> 100 µM	> 100 µM	65.3 µM	> 100 µM	> 100 µM	> 100 µM	> 100 µM	> 100 µM	–
COC(=O)C12OCC34C(CC5C(C)C6=CC(=O)OC6=CC5(C)C3C(O)C1O)OC(=O)C(OC(C)=O)C24 (stereo not drawn)	32.8 µM	35.2 µM	–	31 µM	–	44.2 µM	32.5 µM	37.2 µM	21 µM	25.2 µM	–	65.7 µM	24.9 µM	79.4 µM	49.9 µM	32.6 µM	46 µM	–	–
ClCCN(CC#CCCCC#CCN(CCCl)CCCl)CCCl	28.6 µM	43.1 µM	–	44.8 µM	37.5 µM	26 µM	29.3 µM	25.3 µM	23.4 µM	32.7 µM	–	28.1 µM	24.3 µM	27.8 µM	31.8 µM	44.4 µM	47 µM	–	–
Cc1ccc([N+]2=NC(c3ccc([N+](=O)[O-])cc3)=NN(c3ccccc3)C2)cc1	–	–	–	> 100 µM	–	> 100 µM	> 100 µM	> 100 µM	–	–	–	> 100 µM	> 100 µM	–	> 100 µM	–	> 100 µM	–	–
Clc1ccc(/C=c2\nc(-c3ccccc3)n3c2nc2ccccc23)cc1	> 100 µM	> 100 µM	87.8 µM	71.4 µM	> 100 µM	> 100 µM	> 100 µM	> 100 µM	> 100 µM	> 100 µM	–	> 100 µM	> 100 µM	> 100 µM	> 100 µM	> 100 µM	> 100 µM	> 100 µM	> 100 µM
Nc1nc(N)c2c(CCc3ccc(C(=O)N[C@@H](CCC(=O)O)C(=O)O)cc3)ccnc2n1	> 100 µM	> 100 µM	> 100 µM	> 100 µM	–	> 100 µM	> 100 µM	> 100 µM	> 100 µM	> 100 µM	> 100 µM	> 100 µM	> 100 µM	> 100 µM	> 100 µM	> 100 µM	> 100 µM	> 100 µM	–
O=C1OCCC12CN(Cc1ccccc1)N=N2 (stereo not drawn)	> 100 µM	> 100 µM	> 100 µM	–	> 100 µM	> 100 µM	> 100 µM	> 100 µM	> 100 µM	> 100 µM	> 100 µM	> 100 µM	> 100 µM	> 100 µM	> 100 µM	> 100 µM	> 100 µM	> 100 µM	–
COc1c(N2CCCCC2)c2c(=O)c3ccccc3oc2c2cc(C)oc12	53.6 µM	55.6 µM	51.5 µM	89.1 µM	> 100 µM	> 100 µM	> 100 µM	22.6 µM	61.6 µM	37.3 µM	–	> 100 µM	40.7 µM	> 100 µM	> 100 µM	62.4 µM	54 µM	77.5 µM	97.9 µM
OC1C2CCC3C2CC(C(O)(c2ccccc2)c2ccccc2)C13 (stereo not drawn)	> 100 µM	> 100 µM	> 100 µM	> 100 µM	> 100 µM	> 100 µM	> 100 µM	> 100 µM	48.2 µM	> 100 µM	> 100 µM	> 100 µM	> 100 µM	> 100 µM	> 100 µM	> 100 µM	> 100 µM	> 100 µM	–
O=C(c1ccc(-c2ccccc2)cc1)N(Cc1cccnc1)C(=S)N(Cc1cccnc1)C(=O)c1ccc(-c2ccccc2)cc1	> 100 µM	> 100 µM	> 100 µM	> 100 µM	> 100 µM	> 100 µM	> 100 µM	> 100 µM	> 100 µM	> 100 µM	–	> 100 µM	> 100 µM	> 100 µM	> 100 µM	> 100 µM	> 100 µM	> 100 µM	> 100 µM
O=C(N/C(=C\NC1=NCCS1)C(=O)N1CSC[C@@H]1C(=O)O)c1ccccc1	> 100 µM	> 100 µM	> 100 µM	> 100 µM	> 100 µM	> 100 µM	> 100 µM	> 100 µM	–	> 100 µM	> 100 µM	> 100 µM	> 100 µM	> 100 µM	> 100 µM	> 100 µM	> 100 µM	> 100 µM	–
CN(C)CCNC(=O)c1ccccc1Nc1c(Cl)cccc1Cl	31 µM	–	–	21.6 µM	–	22.2 µM	30.9 µM	20.6 µM	–	–	–	–	9.96 µM	26.8 µM	25.3 µM	–	17.2 µM	–	–
COc1cc2c(NCCN(C)C)nc3c4cc5c(cc4ccc3c2cc1OC)OCO5	7.4 µM	8.77 µM	8.7 µM	8.25 µM	6.07 µM	6.71 µM	6.32 µM	6.77 µM	9.94 µM	5.88 µM	11.5 µM	5.7 µM	5.87 µM	8.65 µM	6.67 µM	8.07 µM	7.05 µM	7.32 µM	–
CCOc1ccccc1NC(=O)CSc1nnc(Cc2ccccc2)o1	66.5 µM	–	–	–	–	> 100 µM	52.1 µM	84.5 µM	63 µM	37.6 µM	–	> 100 µM	38.8 µM	> 100 µM	> 100 µM	> 100 µM	52 µM	–	–
CC1(C)CC(=O)c2c([nH]c(=S)c(C#N)c2-c2ccc(Br)cc2)C1	> 100 µM	52.5 µM	> 100 µM	> 100 µM	> 100 µM	> 100 µM	> 100 µM	> 100 µM	76.6 µM	> 100 µM	–	> 100 µM	> 100 µM	> 100 µM	> 100 µM	–	> 100 µM	> 100 µM	> 100 µM
CCOC(=O)C1C(c2ccco2)C2(C#N)C(=N)OC1(C)C2(C#N)C#N (stereo not drawn)	> 100 µM	> 100 µM	> 100 µM	> 100 µM	> 100 µM	> 100 µM	> 100 µM	> 100 µM	> 100 µM	> 100 µM	> 100 µM	> 100 µM	> 100 µM	> 100 µM	> 100 µM	> 100 µM	> 100 µM	> 100 µM	–
